Measurements as given in patent publication US6551964B1, “Use of citric acid derivatives as pesticidal adjuvants” (Bayer Cropscience S.A., priority 1998, dated 2003).
Structures can show the parent of a compound that is named as a salt.

Tested on: test species shown in Table C (common weeds)
Experiment: Herbicidal efficacy, glasshouse, all test species of Table C
Format: in vivo
Conditions: adjuvant alone, experiments 26d to 29d

## CCCCOC(=O)CC(O)(CC(=O)OCCCC)C(=O)OCCCC [tri-n-butyl citrate]
  herbicidal effects in the absence of any active ingredient: no herbicidal effects

## CCCCOC(=O)CC(CC(=O)OCCCC)(OC(C)=O)C(=O)OCCCC [O-acetyl tri-n-butyl citrate]
  herbicidal effects in the absence of any active ingredient: no herbicidal effects
